According to the kinase profiling compilation of Christmann-Franck et al. (2016):

Columns and labels:
Assay in all cases: radiometric filter-binding kinase assay, Kinase HotSpot
Conditions in all cases: compound 0.5 µM; ATP 10 µM
NEK4 (human) = NEK4 (human) (UniProt P51957)
TTK (human) = TTK (human) (UniProt P33981)
CAMK2A (human) = CAMK2A (human) (UniProt Q9UQM7)
PIM3 (human) = PIM3 (human) (UniProt Q86V86)
DYRK2 (human) = DYRK2 (human) (UniProt Q92630)
CDK2 CCNE1 (human) = CDK2 CCNE1 (human) (UniProt P24941+P24864)
PRKCG (human) = PRKCG (human) (UniProt P05129)
MST1R (human) = MST1R (human) (UniProt Q04912)
PRKCA (human) = PRKCA (human) (UniProt P17252)
CDK5 CDK5R1 p35 (human) = CDK5 CDK5R1 p35 (human) (UniProt Q00535+Q15078)
DAPK3 (human) = DAPK3 (human) (UniProt O43293)
MAPK8 (human) = MAPK8 (human) (UniProt P45983)
PKN1 (human) = PKN1 (human) (UniProt Q16512)
PRKCB2 (human) = PRKCB2 (human) (UniProt P05771)
CSNK1G3 (human) = CSNK1G3 (human) (UniProt Q9Y6M4)
FER (human) = FER (human) (UniProt P16591)
MKNK2 (human) = MKNK2 (human) (UniProt Q9HBH9)
FGFR3 (human) = FGFR3 (human) (UniProt P22607)
MAPK1 (human) = MAPK1 (human) (UniProt P28482)
EPHB4 (human) = EPHB4 (human) (UniProt P54760)
CSNK1A1 (human) = CSNK1A1 (human) (UniProt P48729)
MAPK14 (human) = MAPK14 (human) (UniProt Q16539)
RAF1 (human) = RAF1 (human) (UniProt P04049)
FGFR2 (human) = FGFR2 (human) (UniProt P21802)
RPS6KA2 KD1 KD2 (human) = RPS6KA2 KD1 KD2 (human) (UniProt Q15349)
CAMK1D (human) = CAMK1D (human) (UniProt Q8IU85)
FLT1 (human) = FLT1 (human) (UniProt P17948)
MAPK10 (human) = MAPK10 (human) (UniProt P53779)
DYRK1A (human) = DYRK1A (human) (UniProt Q13627)
[1] = target: TYK2 JH1 catalytic (human) (UniProt P29597)
AKT1 (human) = AKT1 (human) (UniProt P31749)
NTRK2 (human) = NTRK2 (human) (UniProt Q16620)
JAK2 JH1 JH2 (human) = JAK2 JH1 JH2 (human) (UniProt O60674)
STK33 (human) = STK33 (human) (UniProt Q9BYT3)
CDK7 CCNH MNAT1 (human) = CDK7 CCNH MNAT1 (human) (UniProt P50613+P51948+P51946)
FYN (human) = FYN (human) (UniProt P06241)
CAMKK1 (human) = CAMKK1 (human) (UniProt Q8N5S9)
PAK1 (human) = PAK1 (human) (UniProt Q13153)
CAMKK2 (human) = CAMKK2 (human) (UniProt Q96RR4)
[2] = tested on: PRKCQ (human), Q04759 [P330L]

NTRK2 (human), sequence (Q16620 whole entry, looked up): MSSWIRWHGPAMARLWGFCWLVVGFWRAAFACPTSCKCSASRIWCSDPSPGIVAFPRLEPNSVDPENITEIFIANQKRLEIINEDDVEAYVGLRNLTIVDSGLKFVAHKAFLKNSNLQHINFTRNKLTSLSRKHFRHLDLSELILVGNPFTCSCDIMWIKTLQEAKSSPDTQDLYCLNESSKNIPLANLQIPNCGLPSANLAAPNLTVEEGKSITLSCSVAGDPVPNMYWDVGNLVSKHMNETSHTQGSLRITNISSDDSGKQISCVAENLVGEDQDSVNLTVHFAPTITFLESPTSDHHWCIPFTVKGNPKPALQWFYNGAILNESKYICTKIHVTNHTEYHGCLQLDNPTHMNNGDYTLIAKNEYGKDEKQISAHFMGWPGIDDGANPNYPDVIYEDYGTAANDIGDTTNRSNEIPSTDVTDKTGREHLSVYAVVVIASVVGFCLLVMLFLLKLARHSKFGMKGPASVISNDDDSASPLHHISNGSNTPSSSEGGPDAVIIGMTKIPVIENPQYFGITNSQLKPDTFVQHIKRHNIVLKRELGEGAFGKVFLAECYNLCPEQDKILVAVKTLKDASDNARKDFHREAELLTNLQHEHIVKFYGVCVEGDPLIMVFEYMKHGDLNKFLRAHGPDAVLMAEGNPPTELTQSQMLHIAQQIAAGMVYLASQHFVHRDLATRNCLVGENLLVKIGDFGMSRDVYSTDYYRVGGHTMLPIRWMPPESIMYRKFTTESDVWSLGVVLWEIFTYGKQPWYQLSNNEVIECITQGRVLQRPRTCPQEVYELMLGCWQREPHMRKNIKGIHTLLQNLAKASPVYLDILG
MAPK1 (human), sequence (P28482 whole entry, looked up): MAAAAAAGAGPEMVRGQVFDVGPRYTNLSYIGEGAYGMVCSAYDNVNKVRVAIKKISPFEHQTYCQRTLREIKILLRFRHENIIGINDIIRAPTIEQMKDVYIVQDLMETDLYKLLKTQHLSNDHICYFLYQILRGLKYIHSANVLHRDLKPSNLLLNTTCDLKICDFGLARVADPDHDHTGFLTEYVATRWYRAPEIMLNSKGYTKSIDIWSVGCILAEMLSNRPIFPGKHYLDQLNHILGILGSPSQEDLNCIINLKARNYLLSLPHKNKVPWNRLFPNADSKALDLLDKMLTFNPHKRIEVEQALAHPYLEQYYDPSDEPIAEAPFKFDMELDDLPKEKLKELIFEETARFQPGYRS
TTK (human), sequence (P33981 whole entry, looked up): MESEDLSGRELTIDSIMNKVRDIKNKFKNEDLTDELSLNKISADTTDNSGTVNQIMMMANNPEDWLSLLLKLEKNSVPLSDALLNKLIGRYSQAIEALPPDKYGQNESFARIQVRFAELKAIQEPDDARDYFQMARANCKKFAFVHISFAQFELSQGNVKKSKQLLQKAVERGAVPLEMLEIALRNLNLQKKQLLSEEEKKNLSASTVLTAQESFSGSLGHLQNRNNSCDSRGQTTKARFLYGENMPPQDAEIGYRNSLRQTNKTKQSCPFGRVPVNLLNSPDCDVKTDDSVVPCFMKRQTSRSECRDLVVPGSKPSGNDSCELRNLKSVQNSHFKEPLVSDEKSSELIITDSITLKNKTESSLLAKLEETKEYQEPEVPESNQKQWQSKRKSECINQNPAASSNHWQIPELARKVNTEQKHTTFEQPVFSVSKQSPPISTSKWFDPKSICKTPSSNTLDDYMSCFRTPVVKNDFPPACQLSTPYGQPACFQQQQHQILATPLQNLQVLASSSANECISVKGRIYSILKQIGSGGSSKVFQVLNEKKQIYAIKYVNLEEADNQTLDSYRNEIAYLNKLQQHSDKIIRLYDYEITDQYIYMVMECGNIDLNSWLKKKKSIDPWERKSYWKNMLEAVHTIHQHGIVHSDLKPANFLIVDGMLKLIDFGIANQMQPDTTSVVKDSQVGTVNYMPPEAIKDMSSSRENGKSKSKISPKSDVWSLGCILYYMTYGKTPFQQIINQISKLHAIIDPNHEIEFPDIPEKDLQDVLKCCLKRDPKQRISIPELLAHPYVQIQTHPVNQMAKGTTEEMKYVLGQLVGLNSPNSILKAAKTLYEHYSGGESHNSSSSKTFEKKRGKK
TYK2 JH1 catalytic (human), sequence (P29597 whole entry, looked up): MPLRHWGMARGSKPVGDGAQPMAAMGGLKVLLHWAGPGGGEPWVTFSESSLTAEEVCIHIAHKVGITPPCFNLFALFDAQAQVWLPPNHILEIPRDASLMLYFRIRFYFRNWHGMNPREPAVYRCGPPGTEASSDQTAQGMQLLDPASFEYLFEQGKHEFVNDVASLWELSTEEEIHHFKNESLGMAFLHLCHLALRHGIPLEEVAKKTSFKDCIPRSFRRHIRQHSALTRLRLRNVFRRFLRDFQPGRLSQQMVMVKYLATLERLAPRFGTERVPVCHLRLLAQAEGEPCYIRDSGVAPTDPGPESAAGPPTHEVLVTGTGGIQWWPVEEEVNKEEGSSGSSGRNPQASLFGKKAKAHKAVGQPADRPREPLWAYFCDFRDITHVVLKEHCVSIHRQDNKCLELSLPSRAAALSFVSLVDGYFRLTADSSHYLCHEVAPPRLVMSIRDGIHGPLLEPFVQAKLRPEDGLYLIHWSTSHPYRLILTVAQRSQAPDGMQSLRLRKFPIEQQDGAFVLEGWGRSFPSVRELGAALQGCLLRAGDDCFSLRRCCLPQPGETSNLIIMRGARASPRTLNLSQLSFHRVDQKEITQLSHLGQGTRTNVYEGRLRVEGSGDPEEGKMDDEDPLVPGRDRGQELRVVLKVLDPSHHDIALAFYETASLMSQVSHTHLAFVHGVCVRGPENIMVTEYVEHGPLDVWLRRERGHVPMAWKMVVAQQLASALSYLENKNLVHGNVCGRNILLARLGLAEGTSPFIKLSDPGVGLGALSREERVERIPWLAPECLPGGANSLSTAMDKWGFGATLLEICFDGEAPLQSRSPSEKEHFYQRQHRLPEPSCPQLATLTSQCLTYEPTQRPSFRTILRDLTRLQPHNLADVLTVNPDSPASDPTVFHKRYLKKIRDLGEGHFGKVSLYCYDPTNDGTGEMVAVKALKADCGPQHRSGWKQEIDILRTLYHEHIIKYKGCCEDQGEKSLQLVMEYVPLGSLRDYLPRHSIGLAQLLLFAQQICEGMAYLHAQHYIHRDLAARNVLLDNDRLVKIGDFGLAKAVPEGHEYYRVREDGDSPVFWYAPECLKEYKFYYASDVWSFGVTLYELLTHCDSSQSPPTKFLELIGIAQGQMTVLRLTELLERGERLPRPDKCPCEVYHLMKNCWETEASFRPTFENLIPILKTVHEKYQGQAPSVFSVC
FYN (human), sequence (P06241 whole entry, looked up): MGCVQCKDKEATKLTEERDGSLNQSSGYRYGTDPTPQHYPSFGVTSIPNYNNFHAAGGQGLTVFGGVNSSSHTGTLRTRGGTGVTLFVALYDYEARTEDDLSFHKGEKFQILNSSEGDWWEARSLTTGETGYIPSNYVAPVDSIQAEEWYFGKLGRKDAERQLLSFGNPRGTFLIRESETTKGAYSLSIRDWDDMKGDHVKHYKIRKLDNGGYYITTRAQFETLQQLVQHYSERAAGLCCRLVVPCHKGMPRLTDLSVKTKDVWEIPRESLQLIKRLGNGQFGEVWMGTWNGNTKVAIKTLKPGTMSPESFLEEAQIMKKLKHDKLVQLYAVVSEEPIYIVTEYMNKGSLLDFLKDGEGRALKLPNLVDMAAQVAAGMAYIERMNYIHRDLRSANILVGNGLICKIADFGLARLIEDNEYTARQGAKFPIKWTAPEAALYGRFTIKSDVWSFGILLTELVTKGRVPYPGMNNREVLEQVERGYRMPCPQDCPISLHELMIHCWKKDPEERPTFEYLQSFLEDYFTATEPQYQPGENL
CDK2 CCNE1 (human), sequence (P24864 whole entry, looked up, other chains not shown): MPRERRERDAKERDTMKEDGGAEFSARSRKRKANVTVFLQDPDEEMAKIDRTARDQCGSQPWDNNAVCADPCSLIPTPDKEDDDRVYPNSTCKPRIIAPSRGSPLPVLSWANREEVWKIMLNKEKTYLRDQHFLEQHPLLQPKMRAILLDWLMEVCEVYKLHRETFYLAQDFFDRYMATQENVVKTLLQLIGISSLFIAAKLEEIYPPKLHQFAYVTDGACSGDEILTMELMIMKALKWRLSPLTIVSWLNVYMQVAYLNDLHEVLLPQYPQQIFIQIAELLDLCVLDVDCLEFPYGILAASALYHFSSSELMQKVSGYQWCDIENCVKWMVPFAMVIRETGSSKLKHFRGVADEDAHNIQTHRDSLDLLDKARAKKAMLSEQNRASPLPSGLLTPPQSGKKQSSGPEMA
NEK4 (human), sequence (P51957 whole entry, looked up): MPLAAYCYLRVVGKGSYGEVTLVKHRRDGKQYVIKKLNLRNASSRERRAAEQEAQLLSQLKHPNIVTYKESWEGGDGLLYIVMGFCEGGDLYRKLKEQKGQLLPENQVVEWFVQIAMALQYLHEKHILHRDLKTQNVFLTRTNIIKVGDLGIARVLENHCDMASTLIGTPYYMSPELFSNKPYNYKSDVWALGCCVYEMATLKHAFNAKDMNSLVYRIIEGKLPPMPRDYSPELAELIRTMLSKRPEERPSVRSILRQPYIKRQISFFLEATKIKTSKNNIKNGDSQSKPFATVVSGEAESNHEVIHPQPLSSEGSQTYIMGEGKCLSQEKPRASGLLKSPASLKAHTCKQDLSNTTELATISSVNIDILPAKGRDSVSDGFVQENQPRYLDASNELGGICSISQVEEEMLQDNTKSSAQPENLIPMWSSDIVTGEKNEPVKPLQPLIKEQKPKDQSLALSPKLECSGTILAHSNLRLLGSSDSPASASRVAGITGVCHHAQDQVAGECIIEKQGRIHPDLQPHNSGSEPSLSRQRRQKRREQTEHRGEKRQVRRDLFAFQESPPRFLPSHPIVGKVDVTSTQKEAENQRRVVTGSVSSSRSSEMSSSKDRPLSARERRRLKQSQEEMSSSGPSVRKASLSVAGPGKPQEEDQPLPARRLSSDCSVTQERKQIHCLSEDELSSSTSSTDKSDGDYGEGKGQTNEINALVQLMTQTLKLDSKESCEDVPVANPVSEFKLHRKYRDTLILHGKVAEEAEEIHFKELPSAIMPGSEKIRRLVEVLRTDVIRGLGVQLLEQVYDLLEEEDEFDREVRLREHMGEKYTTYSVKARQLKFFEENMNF

Row | SMILES | residual activity (NEK4 (human)) [%] | residual activity (TTK (human)) [%] | residual activity (CAMK2A (human)) [%] | residual activity (PIM3 (human)) [%] | residual activity (DYRK2 (human)) [%] | residual activity (CDK2 CCNE1 (human)) [%] | residual activity (MST1R (human)) [%] | residual activity (CDK5 CDK5R1 p35 (human)) [%] | residual activity (DAPK3 (human)) [%] | residual activity (MAPK8 (human)) [%] | residual activity (PKN1 (human)) [%] | residual activity (CSNK1G3 (human)) [%] | residual activity (FER (human)) [%] | residual activity (MAPK1 (human)) [%] | residual activity (CSNK1A1 (human)) [%] | residual activity (MAPK14 (human)) [%] | residual activity (RAF1 (human)) [%] | residual activity (RPS6KA2 KD1 KD2 (human)) [%] | residual activity (FLT1 (human)) [%] | residual activity (MAPK10 (human)) [%] | further results
1 | O=C1c2ccccc2-c2nc3nnnn3nc21 | 96.1 | 125 | 84.7 | 93.3 | 113 | 80.6 | 93.6 | 79.1 | 96.2 | 78.3 | 97.5 | 80.3 | 89.1 | 87.5 | 85.8 | 88.6 | 76.1 | 89.1 | 3.06 | 55 | residual activity (PRKCG (human)): 59.3%; residual activity (PRKCA (human)): 91.4%; residual activity (PRKCB2 (human)): 29.3%; residual activity (MKNK2 (human)): 78.3%; residual activity (FGFR3 (human)): 26.7%; residual activity (EPHB4 (human)): 97.1%; residual activity (FGFR2 (human)): 59.4%; residual activity (CAMK1D (human)): 93.9%; residual activity (DYRK1A (human)): 95%; residual activity [1]: 77.2%; residual activity (AKT1 (human)): 79.7%; residual activity (NTRK2 (human)): 29.4%; residual activity (JAK2 JH1 JH2 (human)): 82.6%; residual activity (STK33 (human)): 107%; residual activity (CDK7 CCNH MNAT1 (human)): 94.1%; residual activity (FYN (human)): 76.2%; residual activity (CAMKK1 (human)): 74.9%; residual activity (PAK1 (human)): 96.1%; residual activity (CAMKK2 (human)): 76.9%; residual activity [2]: 83%
2 | CO[C@@H]1[C@H](N(C)C(=O)c2ccccc2)C[C@H]2O[C@]1(C)n1c3ccccc3c3c4c(c5c6ccccc6n2c5c31)C(=O)NC4 | 97.6 | 55 | 36.8 | 60.8 | 108 | 81.2 | 101 | 74.1 | 82.6 | 88.3 | 1.37 | 95.3 | 22.4 | 88.8 | 96.2 | 93.7 | 114 | 3.06 | 37 | 98.9 | residual activity (EPHB4 (human)): 110%; residual activity [1]: 8.26%; residual activity (AKT1 (human)): 81.3%; residual activity (NTRK2 (human)): 12.8%; residual activity (JAK2 JH1 JH2 (human)): 8.94%; residual activity (STK33 (human)): 46.4%; residual activity (FYN (human)): 34%; residual activity (CAMKK1 (human)): 20.4%; residual activity (PAK1 (human)): 35.1%; residual activity (CAMKK2 (human)): 3.9%
3 | CC(C)(C)c1cc(C=C(C#N)C#N)cc(Br)c1O | 93.7 | 101 | 104 | 89.1 | 104 | 77.6 | 105 | 102 | 96.4 | 90.4 | 94.5 | 85.8 | 100 | 91.3 | 84.5 | 98.3 | 104 | 98.9 | 92.5 | 92.5 | residual activity (PRKCG (human)): 90.4%; residual activity (PRKCA (human)): 81.4%; residual activity (PRKCB2 (human)): 129%; residual activity (MKNK2 (human)): 100%; residual activity (FGFR3 (human)): 92.8%; residual activity (FGFR2 (human)): 96.4%; residual activity (CAMK1D (human)): 111%; residual activity (DYRK1A (human)): 95.4%; residual activity [1]: 61.3%; residual activity (AKT1 (human)): 108%; residual activity (NTRK2 (human)): 90.9%; residual activity (JAK2 JH1 JH2 (human)): 107%; residual activity (STK33 (human)): 91.1%; residual activity (CDK7 CCNH MNAT1 (human)): 98.5%; residual activity (FYN (human)): 67.2%; residual activity (CAMKK1 (human)): 120%; residual activity (PAK1 (human)): 89.9%; residual activity (CAMKK2 (human)): 92.5%; residual activity [2]: 98%
